Test results from patent US9808448B2, “Pharmaceutical compounds and use of same in cancer and tauopathies” (THE REGENTS OF THE UNIVERSITY OF MICHIGAN, priority 2013, dated 2017).
Entries after “also recorded” stand apart in the source; their conditions may differ. Like-named read-outs stand apart in the source and are kept apart here.

Legend:
[1] = system: MDA-MB-231 cells; assay: Combination cell viability by MTT, MDA-MB-231; type: cell-based; conditions: for combination index CI50 / combination index CI75 / combination index CI90 / combination index CI95: 24 hrs
Method: To further test if an Hsp70 inhibitor would have synergistic activity with inhibitors of Hsp90 and the proteasome, MDA-MB-231 cells were treated for 24 hrs with combinations of an HSP70 inhibitor and an HSP90 inhibitor and measured cell viability by MTT assays. […] JG98 was also synergistic at ratios of JG98:17DMAG of 1:1 and at ratios of JG98:bortezomib at 100:1.

[2] = target: T1, human Hsc70 (HSPA8) (Homo sapiens, UniProt P11142); assay: ELISA competitive binding assay (biotinylated MKT-077 displacement); conditions: for IC50: competitive ELISA, biotin labeled MKT-077 1 μM
T1 construct: made in house
T1 sequence (P11142 whole entry): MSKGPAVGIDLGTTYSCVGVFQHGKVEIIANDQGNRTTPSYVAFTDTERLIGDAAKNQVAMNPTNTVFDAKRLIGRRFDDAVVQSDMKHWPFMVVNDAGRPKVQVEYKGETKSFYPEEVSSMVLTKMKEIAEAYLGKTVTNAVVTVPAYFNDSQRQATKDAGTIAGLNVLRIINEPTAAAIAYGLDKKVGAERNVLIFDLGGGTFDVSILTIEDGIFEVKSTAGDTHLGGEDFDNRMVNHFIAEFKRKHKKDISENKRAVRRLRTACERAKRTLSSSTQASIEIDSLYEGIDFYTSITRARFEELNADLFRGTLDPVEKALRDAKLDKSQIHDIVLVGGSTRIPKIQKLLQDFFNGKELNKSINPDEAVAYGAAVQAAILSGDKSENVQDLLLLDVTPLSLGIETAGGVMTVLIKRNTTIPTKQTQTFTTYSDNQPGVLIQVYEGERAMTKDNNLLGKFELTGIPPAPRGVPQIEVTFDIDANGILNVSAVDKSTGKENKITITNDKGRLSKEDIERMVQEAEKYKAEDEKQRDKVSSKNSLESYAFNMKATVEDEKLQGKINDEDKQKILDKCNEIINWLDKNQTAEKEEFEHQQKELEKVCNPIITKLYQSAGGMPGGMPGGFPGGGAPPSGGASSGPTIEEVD
Method: Binding of MKT-077 analogs to immobilized Hsp70 was evaluated using a competitive ELISA. In this established assay, a biotinylated version of MKT-077 is bound to immobilized human Hsc70 (HSPA8) and potential competitors are tested for their ability to block the interaction.
A sample of Hsc70 (50 μL; 0.06 mg/mL) was immobilized in clear flat-bottom 96-well plate in MES buffer (50 mM 2-(N-morpholino)ethanesulfonic acid, pH 5.2) at 37° C. overnight. After discarding the excess protein solution, each well was washed three times with 150 μL TBS-T buffer (25 mM Tris, 140 mM NaCl, 2.7 mM KCl, 0.01% Tween-20, pH 7.4). Then, 1 μL of compound (1% DMSO) was diluted into 24 μL of binding buffer (100 mM Tris, 20 mM KCl, 6 mM MgCl2, 0.01% Triton-X100) and incubated at room temperature for 30 min. Biotin labeled MKT-077 (final concentration 1 μM; 25 μL) was subsequently added into each well and the mixture was incubated at room temperature for another 3 hrs. The wells were washed with 150 μL TBS-T buffer three times prior to blocking with 100 μL 3% bovine serum albumin (BSA) in TBS-T buffer for 5 min at room temperature. After the removal of the BSA solution, 50 μL of HRP-streptavidin (Pierce Biotechnology, 1:50000 TBS-T dilution) solution was added and the plates were incubated at room temperature for 1 hr. The HRP-streptavidin solution was removed and wells were washed three times with 150 μL TBS-T. […] substrate (Cell Signaling Technology 100 μL) was added into each well and incubated at room temperature until a visible blue color was shown in wells (about 20 min). 1 M HCl stop solution was then added into each well to yield a yellow solution and the absorbance at 450 nm was recorded on SpectraMax M5 (Molecular Devices).

[3] = target: prokaryotic Hsp70 (DnaK) binding to denatured luciferase (Escherichia coli, UniProt P0A6Y8); assay: Luciferase binding assay; type: biochemical; conditions: 50 μM
Sequence of prokaryotic Hsp70 (DnaK) binding to denatured luciferase (P0A6Y8 whole entry): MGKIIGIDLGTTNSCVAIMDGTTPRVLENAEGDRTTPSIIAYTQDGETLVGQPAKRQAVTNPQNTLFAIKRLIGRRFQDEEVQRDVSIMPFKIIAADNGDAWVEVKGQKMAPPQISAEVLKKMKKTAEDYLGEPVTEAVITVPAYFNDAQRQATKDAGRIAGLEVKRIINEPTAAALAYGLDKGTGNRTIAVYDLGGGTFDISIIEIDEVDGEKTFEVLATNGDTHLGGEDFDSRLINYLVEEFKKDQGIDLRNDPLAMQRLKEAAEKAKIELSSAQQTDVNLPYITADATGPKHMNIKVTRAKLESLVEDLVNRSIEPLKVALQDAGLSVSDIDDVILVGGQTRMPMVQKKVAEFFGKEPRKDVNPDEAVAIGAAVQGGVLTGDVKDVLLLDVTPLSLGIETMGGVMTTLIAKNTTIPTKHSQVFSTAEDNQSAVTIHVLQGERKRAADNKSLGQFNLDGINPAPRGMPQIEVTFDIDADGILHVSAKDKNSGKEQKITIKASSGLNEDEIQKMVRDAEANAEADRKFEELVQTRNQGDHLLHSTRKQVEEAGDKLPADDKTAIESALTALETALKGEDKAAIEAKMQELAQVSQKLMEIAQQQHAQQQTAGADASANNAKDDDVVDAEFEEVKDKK
Method: Next, the effect of chaperone functions by binding of YM-08 to Hsp70 was investigated. […] This profile is shared with other allosteric Hsp70 inhibitors. As another test of chaperone function, the effects of the compounds on the binding of Hsp70 to a misfolded protein were measured. In previous work, MKT-077 stabilized the interaction between prokaryotic Hsp70 (DnaK) and denatured luciferase. Briefly, this assay involves immobilizing unfolded luciferase in microtiter plates and measuring binding to DnaK. […] To explore whether YM-08 might also enhance binding of Hsp70 to a more physiologically relevant substrate, binding of tau to immobilized human Hsc70 was measured.
Binding of prokaryotic Hsp70 (DnaK) to denatured luciferase was measured as previously described, in e.g., Miyata, et al., J. Biomol. Screen, 15:1211-1219 (2010). Briefly, firefly luciferase (0.2 mg/mL) was proteolyzed with trypsin and immobilized in 96-well microtiter plates. After washing, the binding of luciferase to DnaK (500 nM) was measured using an anti-DnaK antibody and HRP secondary antibody. A similar strategy was used to monitor binding of human Hsc70 to tau, as previously described in Thompson, et al., ACS Chem. Biol., 7:1677-1686 (2012).

[4] = system: HeLa; assay: Cancer activity screen (MTT cell survival), HeLa; type: cell-based; conditions: Homo sapiens
[5] = system: MDA-MB-231; assay: Cancer activity screen (MTT cell survival), MDA-MB-231; type: cell-based; conditions: Homo sapiens
[6] = system: MEF (C57BL/6); assay: Cell survival, MEF; type: cell-based; conditions: Mus musculus, read-out: IC50/μM MEF (C57BL/6)
[7] = system: MCF-7; assay: Cancer activity screen (MTT cell survival), MCF-7; type: cell-based; conditions: for IC50: Homo sapiens, MCF7; for anti-cancer activity: especially in MCF7 cells
[8] = system: MCF-10A; assay: Cancer activity screen (MTT cell survival), MCF-10A; type: cell-based; conditions: Homo sapiens
[9] = system: human 4R0N tau in HeLaC3 cells; assay: Tau levels in HeLaC3 cells by Western blot; type: cell-based
Method: To determine whether YM-08 might also accelerated tau degradation, HeLaC3 cells, which stably over-express human 4R0N tau, were treated with compound. After 24 hours, the levels of phosphorylated (p396/404) tau and total tau were measured by Western blot. […] This cellular activity is not as dramatic as that of MKT-077, which reduced tau levels by >80% at 30 μM (FIG. 4D); however, reducing tau by only about 50% is predicted to provide benefits in some AD models.

CCn1c(=O)/c(=C2\Sc3cc(Cl)ccc3N2C)s/c1=C\c1scc[n+]1Cc1ccccc1.[Cl-] [JG-98]
synergy ([1]; JG98:17DMAG 1:1): synergistic | combination index CI50 ([1]; JG98:17DMAG (10:1)): 1.09 | combination index CI75 ([1]; JG98:17DMAG (10:1)): 0.35 | combination index CI90 ([1]; JG98:17DMAG (10:1)): 0.27 | combination index CI95 ([1]; JG98:17DMAG (10:1)): 0.2 | synergy ([1]; JG98:bortezomib 100:1): synergistic | combination index CI50 ([1]; JG98:bortezomib (1:1)): 0.05 | combination index CI75 ([1]; JG98:bortezomib (1:1)): 0.05 | combination index CI90 ([1]; JG98:bortezomib (1:1)): < 0.02 | combination index CI95 ([1]; JG98:bortezomib (1:1)): < 0.02

(Z)-2-((3-ethyl-4-oxothiazolidin-2-ylidene)methyl)-1-methylpyridin-1-ium [YM-04]
affinity fold worse than YM-07 ([2]; ratio of ELISA IC50): about 2 fold | IC50 ([2]; read-out: IC50, inhibition of biotinylated MKT-077 binding to immobilized Hsc70): ~15 µM | activity in luciferase binding assay [3]: reduced activity

CCn1c(=O)/c(=C2\Sc3cccc(F)c3N2C)s/c1=C\c1scc[n+]1Cc1ccccc1 [drawing 56]
IC50 [4]: 2.23 ± 0.28 µM | IC50 [5]: 0.4 ± 0.03 µM | IC50 [6]: 8.29 ± 0.66 µM | IC50 [7]: 0.96 ± 0.2 µM | IC50 [8]: 1.07 ± 0.05 µM

CN1/C(=c2\s/c(=C\c3cccc[n+]3Cc3ccccc3)n(Cc3ccccc3)c2=O)Sc2ccccc21
IC50 [4]: 5.89 ± 0.87 µM | IC50 [5]: 1.8 ± 0.34 µM | IC50 [7]: 2.15 ± 0.68 µM | IC50 [8]: 1.34 ± 0.16 µM

CCN1C(=O)/C(=C2\Sc3ccccc3N2C)SC1=S [YM-02, (E)-3-ethyl-5-(3-methylbenzo[d]thiazol-2(3H)-ylidene)-2-thioxothiazolidin-4-one]
IC50 [2]: > 50 µM | activity in luciferase binding assay [3]: reduced activity; also recorded: some residual activity | anti-tau activity in cells [9]: some residual activity | anti-cancer activity [7]: residual activity

CCn1c(=O)/c(=C2\Sc3c(cccc3C(F)(F)F)N2C)s/c1=C\c1cccc[n+]1Cc1ccc(F)c(F)c1
IC50 [4]: 8.47 ± 0.89 µM | IC50 [5]: 6.16 ± 1.33 µM | IC50 [7]: 5.35 ± 1.54 µM | IC50 [8]: 4.77 ± 0.48 µM

CCn1c(=O)/c(=C2\Sc3ccc(Cl)cc3N2C)s/c1=C\c1scc[n+]1Cc1ccccc1
IC50 [4]: 4.32 ± 0.43 µM | IC50 [5]: 0.62 ± 0.1 µM | IC50 [7]: 0.83 ± 0.23 µM

CCn1c(=O)/c(=C2\Sc3ccccc3N2C)s/c1=C\c1cccc[n+]1Cc1ccccc1
IC50 [4]: 3.29 ± 0.36 µM | IC50 [5]: 1.02 ± 0.2 µM | IC50 [6]: 14.6 ± 1.17 µM | IC50 [7]: 1.49 ± 0.22 µM | IC50 [8]: 1.46 ± 0.15 µM

CCn1c(=O)/c(=C2\Sc3cccc(F)c3N2C)s/c1=C\c1cccc[n+]1Cc1ccc(CNC(=O)OC(C)(C)C)cc1
IC50 [4]: 7.6 ± 0.99 µM | IC50 [5]: 1.99 ± 0.33 µM | IC50 [7]: 1.39 ± 0.24 µM

(E)-3-ethyl-5-(3-methylbenzo[d]thiazol-2(3H)-ylidene)-2-(methylthio)-4-oxo-4,5-dihydrothiazol-3-ium [YM-03]
activity in luciferase binding assay [3]: reduced activity

CN1/C(=c2\s/c(=C\c3cc(Cl)cc[n+]3C)n(Cc3ccccc3)c2=O)Sc2ccccc21
IC50 [5]: 2.83 ± 0.26 µM | IC50 [7]: 2.81 ± 1.01 µM | IC50 [8]: 1.12 ± 0.04 µM

CCn1c(=O)/c(=C2\Sc3c(ccc(F)c3F)N2C)s/c1=C\c1cccc[n+]1Cc1ccccc1
IC50 [4]: 6 ± 0.64 µM | IC50 [5]: 2.64 ± 0.35 µM | IC50 [7]: 2.1 ± 0.43 µM | IC50 [8]: 1.36 ± 0.16 µM

CCn1c(=O)/c(=C2\Sc3ccccc3N2C)s/c1=C\c1cccc[n+]1Cc1ccc(F)c(F)c1
IC50 [4]: 12.3 ± 1.21 µM | IC50 [5]: 4.4 ± 0.39 µM | IC50 [7]: 9.6 ± 2.98 µM | IC50 [8]: 3.06 ± 0.38 µM

CCn1c(=O)/c(=C2\Sc3cc(Cl)ccc3N2C)s/c1=C\c1scc[n+]1Cc1ccccc1
IC50 [4]: 0.83 ± 0.2 µM | IC50 [5]: 0.39 ± 0.03 µM | IC50 [6]: 23.9 ± 1.28 µM | IC50 [7]: 0.71 ± 0.22 µM

CCn1c(=O)/c(=C2\Sc3ccc(OC)cc3N2C)s/c1=C\c1cccc[n+]1Cc1ccccc1
IC50 [4]: 3.63 ± 0.32 µM | IC50 [5]: 1.43 ± 0.19 µM | IC50 [7]: 1.6 ± 0.36 µM | IC50 [8]: 1.74 ± 0.19 µM

CCn1c(=O)/c(=C2\Sc3ccccc3N2C)s/c1=C\c1ccc(F)c[n+]1C
IC50 [4]: 15 ± 0.98 µM | IC50 [5]: 7.82 ± 0.78 µM | IC50 [7]: > 30 µM | IC50 [8]: 5.34 ± 0.26 µM

CCN1C(=O)CS/C1=C\c1ccccn1 [YM-07, (Z)-3-ethyl-2-(pyridin-2-ylmethylene)thiazolidin-4-one]
IC50 [2]: ~5.8 µM | affinity fold worse than YM-08 ([2]; ratio of ELISA IC50): about 10 fold | activity in luciferase binding assay [3]: reduced activity | anti-cancer activity [7]: residual activity

CCn1c(=O)/c(=C2\Sc3cccc(Cl)c3N2C)s/c1=C\c1scc[n+]1Cc1ccccc1 [drawing 57]
IC50 [4]: 1.87 ± 0.23 µM | IC50 [5]: 0.41 ± 0.02 µM | IC50 [6]: 6.96 ± 0.63 µM | IC50 [7]: 0.83 ± 0.19 µM | IC50 [8]: 1.14 ± 0.15 µM

CCn1c(=O)/c(=C2\Sc3cccc(Cl)c3N2C)s/c1=C\c1cccc[n+]1Cc1ccccc1
IC50 [4]: 3.7 ± 0.35 µM | IC50 [5]: 0.72 ± 0.18 µM | IC50 [6]: 6.46 ± 0.7 µM | IC50 [7]: 1.37 ± 0.27 µM | IC50 [8]: 0.61 ± 0.09 µM

CCn1c(=O)/c(=C2\Sc3c(cccc3C(F)(F)F)N2C)s/c1=C\c1cccc[n+]1Cc1ccccc1
IC50 [4]: 21.1 ± 3.96 µM | IC50 [5]: 3.46 ± 0.39 µM | IC50 [7]: 2.31 ± 0.43 µM | IC50 [8]: 2.45 ± 0.26 µM

CCn1c(=O)/c(=C2\Sc3cc(OC(F)(F)F)ccc3N2C)s/c1=C\c1scc[n+]1Cc1ccccc1
IC50 ([5]; second table): 0.8 ± 0.1 µM | IC50 ([6]; second table): 1.2 ± 0.1 µM | IC50 ([7]; second table): 0.4 ± 0.04 µM

CCn1c(=O)/c(=C2\Sc3ccccc3N2C)s/c1=C\c1scc[n+]1CC
IC50 ([5]; second table): 2.2 ± 0.2 µM | IC50 ([6]; second table): > 30 µM | IC50 ([7]; second table): 0.8 ± 0.1 µM

CCn1c(=O)/c(=C2\Sc3c(Cl)cccc3N2C)s/c1=C\c1scc[n+]1Cc1ccccc1
IC50 [4]: 3.93 ± 0.51 µM | IC50 [5]: 0.55 ± 0.05 µM | IC50 [6]: > 30 µM | IC50 [7]: 1.05 ± 0.79 µM

CCn1c(=O)/c(=C2\Sc3ccc(F)cc3N2C)s/c1=C\c1cccc[n+]1CC
IC50 ([5]; second table): 13.3 ± 0.7 µM | IC50 ([6]; second table): > 30 µM | IC50 ([7]; second table): 2.4 ± 0.6 µM
